# Experimental data from patent US11040047B2, “Prodrugs of nucleoside phosphonates” (Katholieke Universiteit Leuven, priority 2017, dated 2021).
# pEC50: −log10 of the molar value. Where two headings read alike, the source gives them in different places.
# What was measured:
# [1] = system: HEL cells; experiment: Cytotoxicity, minimum cytotoxic concentration (cell morphology) in HEL cells; conditions: minimum concentration causing microscopically detectable alteration of cell morphology
# [2] = system: HEL cells; experiment: Cytostatic activity, inhibition of HEL cell growth (CC50); conditions: read-out: Cytotoxicity HEL cells CC50, concentration reducing cell viability/proliferation by 50%, 3 days
# [3] = system: TK− VZV strain 07-1; experiment: microbe, parasite or virus in culture; type: cell-based, varicella-zoster virus; conditions: Human alphaherpesvirus 3, HEL, read-out: Antiviral activity EC50 VZV TK− strain
# [4] = system: Vaccinia virus (strain Lederle, ATCC VR-118); experiment: microbe, parasite or virus in culture; type: cell-based; conditions: Orthopoxvirus vaccinia, HEL 299, 96 h, read-out: Antiviral activity EC50 Vaccinia virus
# [5] = in vitro; conditions: human
# [6] = system: human adeno virus-2 (clinical isolate C251085); experiment: Inhibition of virus-induced cytopathicity, human adeno virus-2, in HEL 299 cells; type: cell-based; conditions: Human mastadenovirus C, 240 h, 10 days, cytopathicity reduced by 50%, read-out: Antiviral activity EC50 Adenovirus 2
# [7] = system: human cytomegalovirus (HCMV) strain AD-169; experiment: Inhibition of virus-induced cytopathicity, HCMV AD-169, in HEL fibroblasts; type: cell-based; conditions: read-out: Antiviral activity EC50 HCMV AD-169 strain
# [8] = system: human cytomegalovirus (HCMV) strain Davis; experiment: Inhibition of virus-induced cytopathicity, HCMV Davis, in HEL fibroblasts; type: cell-based; conditions: read-out: Antiviral activity EC50 HCMV Davis strain
# [9] = system: HEL 299 cells; conditions: human
# [10] = system: varicella-zoster virus (VZV) strain Oka; experiment: Inhibition of plaque formation, VZV TK+ Oka, in HEL fibroblasts; type: cell-based; conditions: Human alphaherpesvirus 3, HEL, read-out: Antiviral activity EC50 VZV TK+ strain (OKA)
# [11] = Human betaherpesvirus 5, AD169, HEL
# [12] = Human betaherpesvirus 5, AD169, HEL cells, reduction of virus-induced cytopathicity by 50%
Compound,Cytotoxicity HEL cells MCC ([1]; Table 1),CC50 ([2]; Table 1),pEC50 [3],pEC50 [4],CC50 at 3 days [5],pEC50 [6],"pEC50 [7, 11]","pEC50 ([8]; Human betaherpesvirus 5, HEL)",Cytotoxicity MCC [9],Cytotoxicity HEL cells MCC ([1]; Table 2),pEC50 [10],CC50 at 3 days ([5]; HEL cells),CC50 ([2]; Table 2),"pEC50 [7, 12]","pEC50 ([8]; Human betaherpesvirus 5, HEL cells, reduction of virus-induced cytopathicity by 50%)"
"Nc1nc2c(ncn2CCC(CO)CO)c(=O)[nH]1 [Penciclovir, reference compound]",>79.0,> 395000 nM,–,–,–,–,–,–,–,–,–,–,–,–,–
"CCCCCOC(=O)[C@H](CC(C)C)NP1(=O)CO[C@@H](Cn2cnc3c(N)ncnc32)CO1 (stereo partly drawn) [Example 17, Amyl {(5S)-5-[(6-amino-9H-purin-9-yl)methyl]-2-oxido-1,4,2-dioxaphosphinan-2-yl}-L-leucinate]",4.27,–,9.23,7.11,1620 nM,7.36,8.24,8.42,≥0.8,4.27,9.33,–,–,–,–
"CCCCCOC(=O)[C@H](C)NP1(=O)CO[C@@H](Cn2cnc3c(N)ncnc32)CO1 (stereo partly drawn) [Example 14, Amyl ((5S)-5-((6-amino-9H-purin-9-yl)methyl)-2-oxido-1,4,2-dioxaphosphinan-2-yl)-L-alaninate]",23.5,–,8.37,–,3400 nM,–,7.19,7.19,–,23.5,8.70,–,–,–,–
"CCCCCOC(=O)C[C@H](NP1(=O)CO[C@H](Cn2ccc(N)nc2=O)CO1)C(=O)OCCCCC (stereo partly drawn) [Example 11, Diamyl {(5R)-5-[(4-amino-2-oxopyrimidin-1(2H)-yl)methyl]-2-oxido-1,4,2-dioxaphosphinan-2-yl}-L-aspartate]",>19,–,5.91,–,–,–,5.57,5.45,–,>19,6.09,> 194000 nM,> 194000 nM,–,–
"CCCCCOC(=O)[C@@H](NP1(=O)CO[C@@H](Cn2cnc3c(N)ncnc32)CO1)C(C)C (stereo partly drawn) [Example 16, Amyl {(5S)-5-[(6-amino-9H-purin-9-yl)methyl]-2-oxido-1,4,2-dioxaphosphinan-2-yl}-L-valinate]",4.40,–,8.82,–,7760 nM,–,8.23,8.32,–,4.40,9.24,–,–,–,–
"Nc1nc(O)c2ncn(COC(CO)CO)c2n1 [Ganciclovir, reference compound]",>39.2,–,–,–,–,–,–,–,–,>39.2,–,–,–,5.13,–
"CCCCCOC(=O)[C@@H](NP(=O)(CO[C@H](CO)Cn1cnc2c(N)ncnc21)N[C@H](C(=O)OCCCCC)C(C)C)C(C)C [Example 19, diamyl 2,2′-((((((S)-1-(6-amino-9H-purin-9-yl)-3-hydroxypropan-2-yl)oxy)methyl)phosphoryl)bis(azanediyl))(2S,2′S)-bis(3-methylbutanoate)]",8.57,–,9.02,7.37,600 nM,7.87,7.00,7.14,≥20,8.57,8.82,–,–,–,–
"CCCCCOC(=O)CC[C@H](NP1(=O)CO[C@@H](Cn2cnc3c(N)ncnc32)CO1)C(=O)OCCCCC (stereo partly drawn) [Example 15, Diamyl {(5S)-5-[(6-amino-9H-purin-9-yl)methyl]-2-oxido-1,4,2-dioxaphosphinan-2-yl}-L-glutamate]",13.2,–,9.02,–,520 nM,–,7.85,8.12,–,13.2,9.24,–,–,–,–
"CCCCCOC(=O)C[C@H](NP1(=O)CO[C@@H](Cn2ccc(N)nc2=O)CO1)C(=O)OCCCCC (stereo partly drawn) [Example 10, Diamyl {(5S)-5-[(4-amino-2-oxopyrimidin-1(2H)-yl)methyl]-2-oxido-1,4,2-dioxaphosphinan-2-yl}-L-aspartate]",19.4,–,8.20,–,–,–,7.92,7.72,–,19.4,8.26,33100 nM,–,–,–
"Nc1nc2c(ncn2COCCO)c(=O)[nH]1 [Acyclovir, reference compound]",>88.8,–,–,–,–,–,–,–,–,>88.8,–,–,–,–,–
"Nc1ccn(C[C@@H](CO)OCP(=O)(O)O)c(=O)n1 [Cidofovir, reference compound]",>71.6,> 358000 nM,–,4.30,–,5.00,–,–,>250,>71.6,–,> 358000 nM,–,5.80,6.08
"O=c1[nH]c(=O)n([C@H]2C[C@H](O)[C@@H](CO)O2)cc1/C=C/Br [Brivudin, reference compound]",>30.0,> 300000 nM,4.66,5.24,> 300000 nM,–,–,–,>250,>30.0,7.28,–,–,–,–
"CCCCCOC(=O)[C@@H](NP1(=O)CO[C@@H](Cn2cnc3c(N)ncnc32)CO1)[C@@H](C)CC (stereo partly drawn) [Example 18, Amyl {(5S)-5-[(6-amino-9H-purin-9-yl)methyl]-2-oxido-1,4,2-dioxaphosphinan-2-yl}-L-isoleucinate]",9.96,–,9.27,–,12000 nM,–,8.15,8.19,–,9.96,9.35,–,–,–,–
"CCCCCOC(=O)[C@H](Cc1ccccc1)NP1(=O)CO[C@@H](Cn2cnc3c(N)ncnc32)CO1 (stereo partly drawn) [Example 12, Amyl ((5S)-5-((6-amino-9H-purin-9-yl)methyl)-2-oxido-1,4,2-dioxaphosphinan-2-yl)-L-phenylalaninate]",9.3,–,8.49,–,30600 nM,–,7.51,7.77,–,9.3,9.28,–,–,–,–
"CCCCCOC(=O)[C@H](CCSC)NP1(=O)CO[C@@H](Cn2cnc3c(N)ncnc32)CO1 (stereo partly drawn) [Example 13, Amyl ((5S)-5-((6-amino-9H-purin-9-yl)methyl)-2-oxido-1,4,2-dioxaphosphinan-2-yl)-L-methioninate]",4.11,–,8.40,–,39600 nM,–,7.49,7.54,–,4.11,8.59,–,–,–,–
"CCCCCOC(=O)C[C@H](NP1(=O)CO[C@@H](Cn2cnc3c(N)ncnc32)CO1)C(=O)OCCCCC (stereo partly drawn) [Example 8, Diamyl {(5S)-5-[(6-amino-9H-purin-9-yl)methyl]-2-oxido-1,4,2-dioxaphosphinan-2-yl}-L-aspartate]",13.6,–,8.82,7.11,2730 nM,6.74,7.57,8.05,≥20,13.6,8.85,–,–,–,–
"CCCCCOC(=O)C[C@H](NP1(=O)CO[C@H](Cn2cnc3c(N)ncnc32)CO1)C(=O)OCCCCC (stereo partly drawn) [Example 9, Diamyl {(5R)-5-[(6-amino-9H-purin-9-yl)methyl]-2-oxido-1,4,2-dioxaphosphinan-2-yl}-L-aspartate]",>18.5,–,7.21,–,11600 nM,–,5.36,5.79,–,>18.5,7.48,–,–,–,–
